Results from US20080213252A1, “METHODS OF TREATING ITCH” (priority 2007, published 2008).
Where no end group is shown, it is not given here.

Experiments:
mucunain = molecular target: T1, mucunain (Mucuna pruriens, UniProt B2LSD2); test: Chromogenic substrate assay, inhibition of mucunain by E64; format: biochemical, M. pruriens; conditions: native mucunain 0.9 μM, recombinant mucunain 2.7 μM
T1 construct: made in house; host or cells: E. coli ER2566 (pTWIN1MUC1300) for recombinant mucunain; native mucunain extracted from M. pruriens spicules
T1 sequence (B2LSD2 99-430): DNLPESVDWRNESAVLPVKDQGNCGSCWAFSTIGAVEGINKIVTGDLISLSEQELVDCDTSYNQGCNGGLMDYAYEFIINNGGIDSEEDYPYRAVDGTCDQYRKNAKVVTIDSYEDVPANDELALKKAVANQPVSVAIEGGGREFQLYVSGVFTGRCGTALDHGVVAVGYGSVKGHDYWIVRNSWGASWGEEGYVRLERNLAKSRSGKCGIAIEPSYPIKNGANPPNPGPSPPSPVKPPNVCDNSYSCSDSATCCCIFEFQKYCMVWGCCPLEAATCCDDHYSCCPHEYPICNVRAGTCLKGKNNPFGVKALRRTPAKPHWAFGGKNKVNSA
Text: Papain served as a control cysteine protease.

skin of volunteers = test: Psychophysics: itch sensation after insertion of native or reconstituted cowhage spicules into skin; format: in vivo; conditions: human volunteers; for blocking of itch and other sensations evoked by mucunain-containing spicules: E64 added during reconstitution of spicules; for itch evoked by substance loaded into inactivated spicules: autoclaved spicules soaked in the substance and dried; for itch evoked by PAR4 peptide agonist incubated with inactivated spicules: spicules incubated with peptide at 10 mM
Procedure: Reconstitution of spicules—Native spicules were inactivated by autoclaving for 1 hour and reconstituted with native and recombinant mucunains in the presence or absence of cysteine protease inhibitor, E64. Typically, 50 mg of inactivated spicules were mixed with 0.4 ml of 28 μM mucunain in a 2 ml microfuge tube, vortexed, and dried in a Speed-vac for 2 hours at room temperature. These spicules were then considered as ‘reconstituted’ with the protease alone. Spicules prepared in a similar manner but with E64 added at twice the concentration of mucunain, are considered reconstituted with the protease and the inhibitor.
Psychophysics—These protocols were approved by the Yale University Human Investigation Committee. A row of 10 cowhage spicules were lightly pasted to the flattened end of a Weck-Cel surgical strip, spaced at 1 mm, and applied parallel to the surface of the skin at the mid-volar forearm. […] Every 30 sec, subjects rated the magnitude of each of three qualities of sensation: Itch, pricking/stinging, and burning using the Generalized Labeled Magnitude Scale (Bartoshuk et al. 2004) that employs appropriately placed intensity descriptors of “none”, “barely detectable”, “weak”, “moderate”, “strong”, “very strong” and, at the top of the scale, “the strongest sensation imaginable.” Voltages derived from each subject's movements of a computer mouse that controlled a cursor on a visual representation of this scale were converted to numbers between 0 and 100 and plotted for each quality at successive intervals of 30 s up to 20 min after the insertion of cowhage. Each of nine subjects received, in separate tests, five types of cowhage spicules: native cowhage spicules, heat-inactivated spicules that had been soaked in a solution of cowhage extract containing E64, or the same but without E64, and heat-inactivated spicules that had been previously soaked in a solution of recombinant mucunain containing E64, or the same but without E64. The subject and experimenter were blinded as to the type of spicule administered.
The sensory effects of mucunain was further analyzed. A method of introducing mucunain into the skin of volunteers that would mimic the approach associated with the spicules was developed. Such a method would decrease or eliminate the pain associated with using conventional needles as such nociception might interfere with the sensation of itch. Spicules are inactivated when autoclaved but appear to maintain their physical structure. Inactivated spicules were soaked in a solution containing native or recombinant mucunain and then dried. One gram of fresh spicules was stirred for one hour at 4° C. with 20 ml of 0.1 M potassium phosphate buffer (pH 4.8) and 0.9% NaCl and the liquid removed by filtration through cheesecloth. The spicules were teased from the cheesecloth and autoclaved under dry heat for 30 minutes. The mucuna extract was passed through molecular filters to remove components with molecular weights of less than 9 kD. 50 mg of the inactivated, dried spicules were then soaked in 0.05 ml of the filtered extract containing 0.07 mg of cysteine protease (as determined by non-interfering protein assay) with or without 3.5 micrograms of E-64. The spicules were subsequently dried in a Speed-Vac for 2 hours. These spicules were considered ‘reconstituted’ with one batch containing the cysteine protease and its inhibitor and another batch, the protease alone. An analogous approach was used to load spicules with papain or histamine.

PAR4 = test: PAR activation by cytoplasmic calcium release, ratiometric Fura-2 imaging, PAR4 transfected HeLa cells; format: cell-based, human; conditions: for calcium influx in PAR4 transfected HeLa cells: Fura-2 340:380 ratiometric imaging
Procedure: PAR activation observed by cytoplasmic calcium release—The four human PAR cDNAs were obtained from commercial sources and cloned into the pcDNA3.1 (−) vector (Invitrogen). HeLa cells were transfected with 10 μg of vector cDNA using Lipofectamine 2000 (Invitrogen) and cultured for two days in 96-well glass bottom plates at 30,000 cells/well. Cells were loaded with Fura-2 as follows. The medium was aspirated and replaced with 100 μl of complete DMEM containing 2 μM Fura-2 (Invitrogen) and kept at room temperature in the dark for 1 hr. The medium was again aspirated and each well received 90 μl of HEPES buffered saline (20 mM HEPES, 115 mM NaCl, 5.4 mM KCl, 2 mM CaCl2, 0.8 mM MgCl2, 13.8 mM glucose, pH 7.4). Plates were observed using a Zeiss Axiovert 200M microscope equipped with a filter wheel for monitoring excitation at 340 and 380 nm. Axiovision software, version 4.6 was used to analyze ratiometric calcium imaging of the cells. Ten μl of protease was applied approximately 20 seconds after the start of excitation. Images were taken every 5 seconds, beginning at time zero, for 3 minutes. The software was used to analyze the 37 images taken during each 3-minute period.

Molecule: CC(C)C[C@H](NC(=O)[C@H]1O[C@@H]1C(=O)O)C(=O)NCCCCNC(=N)N (relative stereo) [E64, 1-[N-[(L-3-trans-carboxyoxirane-2-carbonyl)-L-leucyl]amino]-4-guanidinobutane]
- blocking of Z-FR-pNA cleavage by mucunain (mucunain): blocked
- blocking of itch and other sensations evoked by mucunain-containing spicules (skin of volunteers): blocked all sensations
- blocking of itch and other sensations evoked by mucunain-containing spicules (skin of volunteers; listed as E-64): effective in preventing itch
- blocking of protease-induced PAR4 activation (PAR4; native mucunain, recombinant mucunain and papain in the presence of E64): blocked

Molecule: NCCc1c[nH]cn1 [histamine]
- itch evoked by substance loaded into inactivated spicules (skin of volunteers): produced itch

Molecule: AYPGKF-NH2
- itch evoked by PAR4 peptide agonist incubated with inactivated spicules (skin of volunteers): elicited itch
- calcium influx in PAR4 transfected HeLa cells (PAR4): induced calcium influx

Molecule: GYPGKF-NH2 [ID; No. 28]
- itch evoked by PAR4 peptide agonist incubated with inactivated spicules (skin of volunteers): elicited itch

Molecule: bromelain
- itch evoked by substance loaded into inactivated spicules (skin of volunteers): produced itch
- calcium influx in PAR4 transfected HeLa cells (PAR4): induced calcium influx

Molecule: ficin
- calcium influx in PAR4 transfected HeLa cells (PAR4): induced calcium influx
